{
  "source": "patent US20210244720A1",
  "about": "“Therapeutic Tyrosine Kinase Inhibitors for Relapsing Multiple Sclerosis (RMS)” (Genzyme Corporation, priority 2020, published 2021)",
  "key": {"[1]": {"tested_on": "RGS1 mRNA in naive mouse microglia", "experiment": "Naive primary mouse microglia, RGS1 quantitative Real time PCR", "format": "cell-based", "conditions": "2.5 μM, 6 and 24 hours", "method": "Primary mouse microglia were prepared from postnatal mice as described above, and were treated with 2.5 μM of the BTKi inhibitor for 6 and 24 hours. RNA was isolated and was analyzed by quantitative Real time PCR (Taqman, Thermo Fisher)."}, "[2]": {"tested_on": "participants with relapsing multiple sclerosis (RMS)", "experiment": "Phase 2b dose-finding study in RMS: brain MRI lesion counts", "conditions": "for New Gd-enhancing T1-hyperintense lesions: patients with 0 lesions, % / New Gd-enhancing T1-hyperintense lesions: patients with 1 lesion, % / New Gd-enhancing T1-hyperintense lesions: patients with 2 lesions, % / New Gd-enhancing T1-hyperintense lesions: patients with >=3 lesions, % / New or enlarging T2 lesions: patients with 0 lesions, % / New or enlarging T2 lesions: patients with 1 lesion, % / New or enlarging T2 lesions: patients with 2 lesions, % / New or enlarging T2 lesions: patients with >=3 lesions, % / Total Gd-enhancing T1-hyperintense lesions: patients with 0 lesions, % / Total Gd-enhancing T1-hyperintense lesions: patients with 1 lesion, % / Total Gd-enhancing T1-hyperintense lesions: patients with 2 lesions, % / Total Gd-enhancing T1-hyperintense lesions: patients with >=3 lesions, %: after 12 weeks", "quoted_text": "People diagnosed with RMS are eligible for enrollment as long as they meet all inclusion and no exclusion criteria.\nCranial (brain) MRI with and without Gd contrast is performed. Basic MRIs are performed for all participants at all study sites and consist of T2- and T1-weighted sequences without and with Gd contrast.\nNew T1 Gd-enhancing hyperintense and new and enlarging T2 lesions are evaluated at each visit as per the SoA (Table 1), comparing lesion count to that from the previous MRI scan. Unless specified otherwise, the baseline brain MRI is used as the reference to assess all MRI-derived endpoints. The baseline MRI is the last MRI performed before the randomization visit. Standardized endpoint evaluation is assured by central review of brain MRI scans. Blinded central review is performed for all MRI-derived endpoints. Magnetic resonance imaging reviewers are blinded to treatment assignments and to other participant data.\nThe first step of this procedure tests for an efficacy signal (compared to the null hypothesis of a flat, no dose-response curve) in a procedure that controls the type 1 error. […] The second step is the Dose estimation of the dose-response curve, provided that an efficacy signal is established in the first step.\nThe 4-week post-randomization placebo data from Cohort 2 (i.e., Week 4 data from Cohort 2) is utilized as the placebo data at Week 12 in analysis, under the assumption of a constant rate of Gd-enhancing T1-hyperintense lesion formation if participants would be receiving placebo over 12 weeks. Participants in Cohort 2 contribute to the placebo data (at Week 4) as well as the data for 4 BTK inhibitor doses (at Week 16). […] If step 1 yields significant results, the best fitting model from the 6 predefined candidate models is chosen using the generalized Akaike information criterion (AIC).\nThe first step of this procedure tested for an efficacy signal (compared to the null hypothesis of a flat, no dose-response curve) in a procedure that controls the type 1 error.\nThe MRI assessments were excluded from the analyses if the participant was receiving systemic corticosteroids within the 30 days prior to the MRI assessment date. The 4-week post-randomization placebo data from Cohort 2 (i.e., Week 4 data from Cohort 2) was utilized as the placebo data at Week 12 in analysis under the assumption of a constant rate of Gd-enhancing T1-hyperintense lesion formation if participants were to receive placebo over 12 weeks. Participants in Cohort 2 contributed to the placebo data (at Week 4) as well as the data for 4 BTK inhibitor doses (at Week 16). The 4-week placebo run-out data from Cohort 1 was not included in the analysis. […] Test statistics and adjusted p-values were provided for all 6 candidate models.\nFor each secondary endpoint, a similar negative binomial model and the MCP-Mod procedure were used. As it is reasonable to assume a constant rate of lesion formation over 12 weeks under placebo treatment, the same approach as that utilized for the primary endpoint was used, i.e., using the Week 4 data in Cohort 2 as the Week 12 placebo data while accounting for within-participant correlation. Descriptive summary statistics over time were provided for each of the 4 BTK inhibitor dose groups."}, "[3]": {"tested_on": "CYP3A", "experiment": "Preclinical drug metabolism studies, CYP3A", "format": "in vitro ADME", "description": "(§1) See Table 12 for the list of drugs not to be used."}, "[4]": {"target": "T1, CYP2C8 (Homo sapiens, UniProt P10632)", "T1 sequence (P10632 1-490)": "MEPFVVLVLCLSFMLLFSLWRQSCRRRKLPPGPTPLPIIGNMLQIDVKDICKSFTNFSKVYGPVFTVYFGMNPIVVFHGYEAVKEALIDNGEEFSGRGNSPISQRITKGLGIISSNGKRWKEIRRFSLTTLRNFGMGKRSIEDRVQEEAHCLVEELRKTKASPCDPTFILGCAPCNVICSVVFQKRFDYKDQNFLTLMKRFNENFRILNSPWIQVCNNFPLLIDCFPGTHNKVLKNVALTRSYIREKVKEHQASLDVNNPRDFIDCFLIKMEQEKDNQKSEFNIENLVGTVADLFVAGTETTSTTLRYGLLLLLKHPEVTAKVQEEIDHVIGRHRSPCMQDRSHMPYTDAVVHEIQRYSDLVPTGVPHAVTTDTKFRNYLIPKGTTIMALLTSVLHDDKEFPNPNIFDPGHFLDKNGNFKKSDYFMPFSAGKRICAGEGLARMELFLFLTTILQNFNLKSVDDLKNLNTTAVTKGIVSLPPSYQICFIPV", "experiment": "Preclinical drug metabolism studies, CYP2C8", "format": "in vitro ADME", "description": "as §1"}, "[5]": {"experiment": "Pharmacokinetics in RMS patients, fed versus fasting status", "format": "in vivo, human", "conditions": "RMS patients of the Phase 2b study", "method": "An additional PK sample is collected 3 hours post-dose (±0.5 hour) at visits during Weeks 4 and 12 for all participants in both cohorts. Data of the most recent meal prior to PK sampling are noted in the eCRF.\nAdditional PK parameters such as Cmax, […], and AUC at steady state are estimated using a population PK approach.\nSamples from the two groups were obtained and anaylzed to evaluate pharmacokinetics parameters as described in Example 1.10 above."}},
  "data": [
    {"smiles": "C=CC(=O)N1CCC[C@@H](n2c(=O)n(-c3ccc(Oc4ccccc4)cc3)c3c(N)nccc32)C1", "note": "[the BTK inhibitor, (R)-1-(1-acryloylpiperidin-3-yl)-4-amino-3-(4-phenoxyphenyl)-1H-imidazo[4,5-c]pyridin-2(3H)-one]", "values": [
      {"measurement": "RGS1 mRNA level in naive mouse microglia", "setting": "[1]", "value": "reduced"},
      {"measurement": "New Gd-enhancing T1-hyperintense lesions: patients with 0 lesions, %", "setting": "[2]; 5 mg daily", "value": "(71.0) %"},
      {"measurement": "New Gd-enhancing T1-hyperintense lesions: patients with 1 lesion, %", "setting": "[2]; 5 mg daily", "value": "(6.5) %"},
      {"measurement": "New Gd-enhancing T1-hyperintense lesions: patients with 2 lesions, %", "setting": "[2]; 5 mg daily", "value": "(9.7) %"},
      {"measurement": "New Gd-enhancing T1-hyperintense lesions: patients with >=3 lesions, %", "setting": "[2]; 5 mg daily", "value": "(12.9) %"},
      {"measurement": "New or enlarging T2 lesions: patients with 0 lesions, %", "setting": "[2]; 5 mg daily", "value": "(61.3) %"},
      {"measurement": "New or enlarging T2 lesions: patients with 1 lesion, %", "setting": "[2]; 5 mg daily", "value": "(9.7) %"},
      {"measurement": "New or enlarging T2 lesions: patients with 2 lesions, %", "setting": "[2]; 5 mg daily", "value": "(12.9) %"},
      {"measurement": "New or enlarging T2 lesions: patients with >=3 lesions, %", "setting": "[2]; 5 mg daily", "value": "(16.1) %"},
      {"measurement": "Total Gd-enhancing T1-hyperintense lesions: patients with 0 lesions, %", "setting": "[2]; 5 mg daily", "value": "(64.5) %"},
      {"measurement": "Total Gd-enhancing T1-hyperintense lesions: patients with 1 lesion, %", "setting": "[2]; 5 mg daily", "value": "(12.9) %"},
      {"measurement": "Total Gd-enhancing T1-hyperintense lesions: patients with 2 lesions, %", "setting": "[2]; 5 mg daily", "value": "(6.5) %"},
      {"measurement": "Total Gd-enhancing T1-hyperintense lesions: patients with >=3 lesions, %", "setting": "[2]; 5 mg daily", "value": "(16.1) %"},
      {"measurement": "New Gd-enhancing T1-hyperintense lesions: patients with 0 lesions, %", "setting": "[2]; 15 mg daily", "value": "(67.7) %"},
      {"measurement": "New Gd-enhancing T1-hyperintense lesions: patients with 1 lesion, %", "setting": "[2]; 15 mg daily", "value": "(16.1) %"},
      {"measurement": "New Gd-enhancing T1-hyperintense lesions: patients with 2 lesions, %", "setting": "[2]; 15 mg daily", "value": "(3.2) %"},
      {"measurement": "New Gd-enhancing T1-hyperintense lesions: patients with >=3 lesions, %", "setting": "[2]; 15 mg daily", "value": "(12.9) %"},
      {"measurement": "New or enlarging T2 lesions: patients with 0 lesions, %", "setting": "[2]; 15 mg daily", "value": "(48.4) %"},
      {"measurement": "New or enlarging T2 lesions: patients with 1 lesion, %", "setting": "[2]; 15 mg daily", "value": "(22.6) %"},
      {"measurement": "New or enlarging T2 lesions: patients with 2 lesions, %", "setting": "[2]; 15 mg daily", "value": "(9.7) %"},
      {"measurement": "New or enlarging T2 lesions: patients with >=3 lesions, %", "setting": "[2]; 15 mg daily", "value": "(19.4) %"},
      {"measurement": "Total Gd-enhancing T1-hyperintense lesions: patients with 0 lesions, %", "setting": "[2]; 15 mg daily", "value": "(64.5) %"},
      {"measurement": "Total Gd-enhancing T1-hyperintense lesions: patients with 1 lesion, %", "setting": "[2]; 15 mg daily", "value": "(19.4) %"},
      {"measurement": "Total Gd-enhancing T1-hyperintense lesions: patients with >=3 lesions, %", "setting": "[2]; 15 mg daily", "value": "(16.1) %"},
      {"measurement": "New Gd-enhancing T1-hyperintense lesions: patients with 0 lesions, %", "setting": "[2]; 30 mg daily", "value": "(81.8) %"},
      {"measurement": "New Gd-enhancing T1-hyperintense lesions: patients with 1 lesion, %", "setting": "[2]; 30 mg daily", "value": "(12.1) %"},
      {"measurement": "New Gd-enhancing T1-hyperintense lesions: patients with 2 lesions, %", "setting": "[2]; 30 mg daily", "value": "(3.0) %"},
      {"measurement": "New Gd-enhancing T1-hyperintense lesions: patients with >=3 lesions, %", "setting": "[2]; 30 mg daily", "value": "(3.0) %"},
      {"measurement": "New or enlarging T2 lesions: patients with 0 lesions, %", "setting": "[2]; 30 mg daily", "value": "(72.7) %"},
      {"measurement": "New or enlarging T2 lesions: patients with 1 lesion, %", "setting": "[2]; 30 mg daily", "value": "(15.2) %"},
      {"measurement": "New or enlarging T2 lesions: patients with 2 lesions, %", "setting": "[2]; 30 mg daily", "value": "(3.0) %"},
      {"measurement": "New or enlarging T2 lesions: patients with >=3 lesions, %", "setting": "[2]; 30 mg daily", "value": "(9.1) %"},
      {"measurement": "Total Gd-enhancing T1-hyperintense lesions: patients with 0 lesions, %", "setting": "[2]; 30 mg daily", "value": "(75.8) %"},
      {"measurement": "Total Gd-enhancing T1-hyperintense lesions: patients with 1 lesion, %", "setting": "[2]; 30 mg daily", "value": "(12.1) %"},
      {"measurement": "Total Gd-enhancing T1-hyperintense lesions: patients with 2 lesions, %", "setting": "[2]; 30 mg daily", "value": "(6.1) %"},
      {"measurement": "Total Gd-enhancing T1-hyperintense lesions: patients with >=3 lesions, %", "setting": "[2]; 30 mg daily", "value": "(6.1) %"},
      {"measurement": "New Gd-enhancing T1-hyperintense lesions: patients with 0 lesions, %", "setting": "[2]; 60 mg daily", "value": "(90.3) %"},
      {"measurement": "New Gd-enhancing T1-hyperintense lesions: patients with 1 lesion, %", "setting": "[2]; 60 mg daily", "value": "(6.5) %"},
      {"measurement": "New Gd-enhancing T1-hyperintense lesions: patients with 2 lesions, %", "setting": "[2]; 60 mg daily", "value": "(3.2) %"},
      {"measurement": "New or enlarging T2 lesions: patients with 0 lesions, %", "setting": "[2]; 60 mg daily", "value": "(87.1) %"},
      {"measurement": "New or enlarging T2 lesions: patients with 1 lesion, %", "setting": "[2]; 60 mg daily", "value": "(3.2) %"},
      {"measurement": "New or enlarging T2 lesions: patients with 2 lesions, %", "setting": "[2]; 60 mg daily", "value": "(9.7) %"},
      {"measurement": "Total Gd-enhancing T1-hyperintense lesions: patients with 0 lesions, %", "setting": "[2]; 60 mg daily", "value": "(87.1) %"},
      {"measurement": "Total Gd-enhancing T1-hyperintense lesions: patients with 1 lesion, %", "setting": "[2]; 60 mg daily", "value": "(3.2) %"},
      {"measurement": "Total Gd-enhancing T1-hyperintense lesions: patients with 2 lesions, %", "setting": "[2]; 60 mg daily", "value": "(6.5) %"},
      {"measurement": "Total Gd-enhancing T1-hyperintense lesions: patients with >=3 lesions, %", "setting": "[2]; 60 mg daily", "value": "(3.2) %"},
      {"measurement": "dose-response relationship, reduction in number of new active Gd-enhancing T1-hyperintense brain lesions", "setting": "[2]; 5-60 mg once daily, 12 weeks", "value": "demonstrating a dose-response relationship"},
      {"measurement": "new Gd-enhancing T1-hyperintense lesions in patients with higher AUC", "setting": "[2]; patients with higher exposure", "value": "very few or no new Gd-enhancing T1-hyperintense lesions"},
      {"measurement": "CYP3A metabolism", "setting": "[3]", "value": "substrate"},
      {"measurement": "CYP2C8 metabolism", "setting": "[4]", "value": "substrate"},
      {"measurement": "median AUC, fed state compared to fasted state", "setting": "[5]", "value": "substantially increased"}
    ]}
  ]
}
